From US11103605B2, “PET-imaging immunomodulators” (BRISTOL-MYERS SQUIBB COMPANY, priority 2016, dated 2021)

Legend:
[1] = target: T1, PD-L1 (Homo sapiens, UniProt Q9NZQ7); assay: In vitro autoradiography on human lung tumor and xenograft tissue sections; type: binding; settings: 0.25 nM radiotracer, unlabelled peptide 0.1 nM, 1 nM, 10 nM
T1 construct: Human lung tumor tissues were embedded in OCT and chilled in 2-methylbutane; from tissue; host or cells: human non-small cell lung cancer biopsy sections; L2987 (hPD-L1+) and HT-29 (hPD-L1-) human xenograft sections grown in mice
T1 sequence (Q9NZQ7 19-290): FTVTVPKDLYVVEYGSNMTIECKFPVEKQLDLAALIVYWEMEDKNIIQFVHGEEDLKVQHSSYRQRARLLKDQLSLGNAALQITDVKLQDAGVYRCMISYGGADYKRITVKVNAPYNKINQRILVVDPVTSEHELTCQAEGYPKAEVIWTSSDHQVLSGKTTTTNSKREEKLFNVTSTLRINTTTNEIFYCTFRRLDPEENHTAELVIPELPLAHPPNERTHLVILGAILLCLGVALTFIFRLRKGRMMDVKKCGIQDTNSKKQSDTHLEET
Method: Human lung tumor tissues were embedded in OCT and chilled in 2-methylbutane for 2-5 minutes until frozen. Samples were stored in −80° C. degree freezer until use. Human xenograft tissues were also included in the assay. […] Once resulting xenograft tumors reached appropriate size (approx. 200-300 mm^3), mice were anesthetized with 2% isoflurane and sacrificed via cervical dislocation. Fresh tumor tissues were excised, immersed into OCT and chilled in 2-methylbutane for 2-5 minutes until frozen. The tissues were then wrapped in foil/ZIPLOC® bag and stored at −80° C. until use. For all tissues (human lung tumor and xenografts) sections of 5 μm thickness (collected as 2 sections/slide) were cut using a cryostat, thaw-mounted on glass microscope slides, and allowed to air dry for approximately 30 minutes. Blocking studies with cold (unlabelled) peptide at 0.1 nM, 1 nM, and 10 nM respectively. The individual slides, 1 slide per concentration, were transferred to glass slide incubation chambers for incubation. […] Autoradiography signals from tissue-associated radioactivity were quantified from these ROIs. The apparent displacement of the [^18F]labelled macrocyclic PD-L1 peptide radiotracer when compared to the total binding sections was determined for 3 different concentrations (0.1 nM, 1 nM, and 10 nM) of unlabeled peptide in both human lung tumor sections as well as human xenograft sections. […]

[2] = test system: endogenous PD-L1; assay: PET imaging in non-human primate, baseline and blocking study; settings: for % Change of tracer SUV, baseline vs blocked: 2 mg/kg PD-L1 binding macrocyclic peptide
Method: Cynomolgus male monkeys with a previously installed vascular access port (VAP) were anesthetized with 0.02 mg/kg atropine, 5 mg/kg Telazol and 0.01 mg/kg buprenorphine I.M. (all drawn into a single syringe). An i.v. catheter is then placed in the cephalic vessel for fluid administration during the imaging procedure to maintain hydration. Animals were intubated with an endotracheal tube—usually 3.0 mm and transferred to the imaging bed of a microPET® F220TM PET instrument (Siemens Preclinical Solutions, Knoxville, Tenn.). Anesthesia was maintained with isoflurane and oxygen and I.V. fluids (LRS) were administered at a rate of 6 ml/kg/hr during the imaging procedure. As the axial field of view of the microPET® F220™ instrument is only 7.6 cm, images over 5 distinct bed positions were acquired to create a composite image of the animals from just above the heart through approximately the pelvis.
For each field of view, a 10 minute transmission image was first acquired using a ^57Co point source for the purpose of attenuation correction of the final PET images. Once transmission images were acquired for all bed positions, approximately 1.7 mCi (approximately 0.12 μg/kg) of the [^18F]labelled macrocyclic PD-L1 peptide radiotracer was administered via the installed VAP. 5 minute duration emission scans were then sequentially acquired for each bed position, beginning at position 1 centered approximately at the heart and moving toward the pelvis of the animal. Once images were acquired at each position (1 through 5), the imaging bed was moved back to bed position 1 and the process was repeated. Using this procedure, a total of 5 distinct images were acquired for each bed position over the duration of the imaging study.
Individual images were reconstructed using a filtered back projection (FBP) algorithm with attenuation correction using the collected transmission images and corrected for radioisotope decay. Final composite images were then produced by aligning images from all 5 bed positions obtained from a single pass (i.e. a single composite image was produced from each set of sequential images from bed positions 1 through 5) covering the duration of the imaging study. […] To determine the nature of the specific binding in the cynomolgus monkey spleen a blocking study was conducted in the following manner.
The cynomolgus monkey (4.4 kg, male) received a single IV injection of [^18F]labelled macrocyclic PD-L1 peptide radiotracer (˜1.7 mCi, mass: 0.21 μg/kg) at baseline. On the following day (post-dose), the same NHP received a single SC dose of 2 mg/kg anti-PD-L1 binding macrocyclic peptide at 2 hours before radiotracer injection (˜1.7 mCi, mass: 0.12 μg/kg).

In the case of `CCCC[C@H]1C(=O)N(C)[C@@H](CCCC)C(=O)N[C@@H](CC(C)C)C(=O)N[C@H](C(=O)NCC(=O)N[C@@H](Cc2cn(CCOCCOCCOCCOc3cccnc3[18F])nn2)C(=O)O)CSCC(=O)N[C@@H](Cc2ccc(O)cc2)C(=O)N(C)[C@@H](C)C(=O)N[C@@H](CC(N)=O)C(=O)N2CCC[C@H]2C(=O)N[C@@H](CN)C(=O)N[C@@H](CC(C)C)C(=O)N2C[C@H](O)C[C@H]2C(=O)N[C@@H](Cc2c[nH]c3ccccc23)C(=O)N[C@@H](CCN)C(=O)N[C@@H](Cc2cn(CC(=O)O)c3ccccc23)C(=O)N1C` [[^18F]labelled macrocyclic PD-L1 peptide], the “displacement of radiotracer by unlabelled peptide” value [1] is reported as “dose dependent displacement”, the “tracer uptake blocked in the spleen” value ([2]; 2 mg/kg of a specific PD-L1 binding macrocyclic peptide) is reported as 93% and the “% Change of tracer SUV, baseline vs blocked” value (“% Change of tracer SUV” below) ([2]; Duodenum) is reported as −0.9%. The “% Change of tracer SUV” value ([2]; Gallbladder) was −59.4%, the “% Change of tracer SUV” value ([2]; Kidney Cortex) was 28.8% and the “% Change of tracer SUV” value ([2]; Kidney Pelvis) was 171.7%. For the same molecule, the “% Change of tracer SUV” value ([2]; Liver) was −65.5%, the “% Change of tracer SUV” value ([2]; Lung) was −57.3% and the “% Change of tracer SUV” value ([2]; Muscle) was −34.7%. The “notable radiotracer accumulation (organs)” value ([2]; PET images) was “kidneys, spleen, and bladder”, the “% Change of tracer SUV” value ([2]; Spleen) was −92.8% and the “% Change of tracer SUV” value ([2]; Thymus) was −53.3%. The “background accumulation of radiotracer in background tissues such as muscle” value ([2]; visual inspection of PET images) was “very low”.
